Patent publication US6890921B1, “Arylsubstituted piperazines useful in the treatment of benign prostatic hyperplasia” (Ortho-McNeil Pharmaceutical, Inc., priority 1997, dated 2005)

Tests used:
α1a-AR = biological target: T1, α1a-AR (Homo sapiens, UniProt P35348); test: Radioligand ([125I]-HEAT) receptor binding assay, COS cell membranes expressing α1a-AR; settings: [125I]-HEAT 50 pM
T1 construct: expressed in transfected cells; host or cells: COS cells (transient, DEAE-dextran), membranes
T1 sequence (P35348 1-466): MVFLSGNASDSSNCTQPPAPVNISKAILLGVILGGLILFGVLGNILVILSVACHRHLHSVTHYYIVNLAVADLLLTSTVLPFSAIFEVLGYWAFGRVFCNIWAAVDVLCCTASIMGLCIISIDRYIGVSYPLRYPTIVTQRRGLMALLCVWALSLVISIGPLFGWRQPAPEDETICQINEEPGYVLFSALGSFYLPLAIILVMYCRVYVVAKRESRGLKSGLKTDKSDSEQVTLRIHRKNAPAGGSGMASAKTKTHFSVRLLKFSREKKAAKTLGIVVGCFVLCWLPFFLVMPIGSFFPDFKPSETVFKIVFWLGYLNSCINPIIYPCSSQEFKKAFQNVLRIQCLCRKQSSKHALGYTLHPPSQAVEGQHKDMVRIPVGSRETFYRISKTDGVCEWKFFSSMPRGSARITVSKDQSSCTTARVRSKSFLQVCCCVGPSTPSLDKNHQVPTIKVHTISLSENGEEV
Text: (§1) The DNA sequences of the three cloned human α1-AR subtypes have been published. […] We used published DNA sequence information to design primers for use in RT-PCR amplification of each subtype to obtain cloned cDNAs. Human poly A+ RNA was obtained from commercially available sources and included hippocampus and prostate samples, sources which have been cited in the literature. For the primary screen a radio ligand binding assay was used which employed membrane preparations from cells expressing the individual cloned receptor cDNAs. Radiolabeled ligands with binding activity on all three subtypes (non-selective) are commercially available ([125I]-HEAT, [3H]-prazosin).
(§2) Each α1 receptor subtype was cloned from poly A+ RNA by the standard method of reverse transcription-polymerase chain reaction (RT-PCR). The following sources of polyA+ RNA were used for the cloning of the α1 receptor subtypes: α1a-AR, human hippocampus and prostate, α1b-AR, human hippocampus, α1d-AR, human hippocampus. The resulting cDNAs were cloned into the pcDNA3 mammalian expression vector (Invitrogen Corp., San Diego Calif.). Each DNA was sequenced for verification and to detect any possible mutations introduced during the amplification process. Any deviation in sequence from the published consensus for each receptor subtype was corrected by site-directed mutagenesis.
(§3) The three α1-AR subtypes (a, b, d) were transfected into COS cells using a standard DEAE-dextran procedure with a chloroquine shock. In this procedure, each tissue culture dish (100 mm) was inoculated with 3.5×10^6 cells and transfected with 10 μg of DNA. Approximately 72 hours post-transfection, the cells were harvested and COS membranes were prepared. Transfected COS cells from 25 plates (100 mm) were scraped and suspended in 15 mL of TE buffer (50 mM Tris-HCl, 5 mM EDTA, pH7.4). The suspension was disrupted with a homogenizer. It was then centrifuged at 1000×g for 10 minutes at 4° C. The supernatant was centrifuged at 34,500×g for 20 minutes at 4° C. The pellet was resuspended in 5 mL TNE buffer (50 mM Tris-HCl, 5 mM EDTA, 150 mM NaCl, pH7.4). The resulting membrane preparation was aliquoted and stored at −70° C. The protein concentration was determined following membrane solubilization with TritonX-100.
(§4) The ability of each compound to bind to each of the α1-AR subtypes was assessed in a receptor binding assay. [125I]-HEAT, a non-selective α1-AR ligand, was used as the radiolabeled ligand. Each well of a 96-well plate received: 140 μL TNE, 25 μL [125I]-HEAT diluted in TNE (50,000 cpm; final concentration 50 pM), 10 μL test compound diluted in DMSO (final concentration 1 pM-[…]), […] COS cell membrane preparation expressing one of the three α1-AR subtypes (0.05-0.2 mg membrane protein). The plate was incubated for 1 hour at room temperature and the reaction mixtures were filtered through a Packard GF/C Unifilter filter plate. The filter plate was dried for 1 hour in a vacuum oven. Scintillation fluid ([…]) was added to each well, and the filter plate was counted in a Packard Topcount scintillation counter. Data was analyzed using GraphPad Prism software.
(§5) Tables A & B list the IC50 values expressed in nanomolar concentration for select compounds of the invention in all receptor subtypes.

α1b-AR = biological target: T2, α1b-AR (Homo sapiens, UniProt P35368); test: Radioligand ([125I]-HEAT) receptor binding assay, COS cell membranes expressing α1b-AR; settings: [125I]-HEAT 50 pM
T2 construct: expressed in transfected cells; host or cells: COS cells (transient, DEAE-dextran), membranes
T2 sequence (P35368 1-520): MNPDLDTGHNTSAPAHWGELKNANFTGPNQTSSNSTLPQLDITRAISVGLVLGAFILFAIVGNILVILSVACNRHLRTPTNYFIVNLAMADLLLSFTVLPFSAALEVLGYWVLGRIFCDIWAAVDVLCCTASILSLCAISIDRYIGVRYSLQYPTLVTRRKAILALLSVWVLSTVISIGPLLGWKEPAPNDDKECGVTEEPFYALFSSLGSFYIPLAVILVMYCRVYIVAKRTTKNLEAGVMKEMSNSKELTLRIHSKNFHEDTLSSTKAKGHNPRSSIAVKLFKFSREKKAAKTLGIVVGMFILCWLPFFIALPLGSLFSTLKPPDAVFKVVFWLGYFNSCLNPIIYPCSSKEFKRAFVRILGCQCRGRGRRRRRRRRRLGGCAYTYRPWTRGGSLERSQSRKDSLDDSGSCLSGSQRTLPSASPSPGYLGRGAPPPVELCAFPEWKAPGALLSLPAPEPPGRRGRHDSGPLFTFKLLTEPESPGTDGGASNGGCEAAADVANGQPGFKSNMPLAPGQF
Text: as §1, §2, §3, §4, §5

α1d-AR = biological target: T3, α1d-AR (Homo sapiens, UniProt P25100); test: Radioligand ([125I]-HEAT) receptor binding assay, COS cell membranes expressing α1d-AR; settings: [125I]-HEAT 50 pM
T3 construct: expressed in transfected cells; host or cells: COS cells (transient, DEAE-dextran), membranes
T3 sequence (P25100 1-572): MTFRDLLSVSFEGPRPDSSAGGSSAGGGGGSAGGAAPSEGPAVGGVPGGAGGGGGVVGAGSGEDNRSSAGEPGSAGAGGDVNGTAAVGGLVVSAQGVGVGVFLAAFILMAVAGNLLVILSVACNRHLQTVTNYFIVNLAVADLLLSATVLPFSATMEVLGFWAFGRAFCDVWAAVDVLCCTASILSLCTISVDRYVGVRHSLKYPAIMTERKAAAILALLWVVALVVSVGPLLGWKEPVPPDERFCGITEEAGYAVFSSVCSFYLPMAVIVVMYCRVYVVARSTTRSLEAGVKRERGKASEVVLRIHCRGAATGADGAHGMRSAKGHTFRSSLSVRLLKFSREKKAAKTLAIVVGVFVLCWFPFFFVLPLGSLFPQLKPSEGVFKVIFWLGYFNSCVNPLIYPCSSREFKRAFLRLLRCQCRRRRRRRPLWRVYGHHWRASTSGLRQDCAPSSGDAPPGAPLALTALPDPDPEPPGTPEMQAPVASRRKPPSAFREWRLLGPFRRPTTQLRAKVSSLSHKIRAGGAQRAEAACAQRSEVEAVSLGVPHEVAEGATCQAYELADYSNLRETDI
Text: as §1, §2, §3, §4, §5

[1] = biological target: T4, HEK 293s cells expressing human α1a-AR (Homo sapiens, UniProt P35348); test: Antagonism of norepinephrine-induced mobilization of cytosolic calcium (Fluo-3, FLIPR); format: cell-based; settings: norepinephrine 10 uM, read-out: IC50 for inhibition of the mobilization of cytosolic calcium
T4 construct: expressed in transfected cells
T4 sequence (P35348 1-466): T1 sequence (P35348 1-466)
Text: Binding of an agonist to α1-ARs causes the activation of PLC through G-protein coupled mechanisms (Minneman and Esbenshade, 1994). PLC catalyzes the hydrolysis of phosphatidyl inositol 4,5-bisphosphate (PIP2) generating two second messenger molecules, inositol 1,4,5-triphosphate (IP3) and diacylglycerol (DAG) and ultimately resulting in mobilization of intracellular calcium stores.
Preparation of stable cell lines expressing each receptor subtype: The alpha 1 adrenergic receptor subtypes (a, b, d) in the pcDNA3 vector were transfected into HEK 293s (human embryonic kidney) cells to form stable receptor-expressing cell lines. Transfection was performed using DMRIE-C (GibcoBRL) cationic lipid reagent mixed with 2-3 ug of DNA and reduced serum OPTI-MEM 1 medium (GibcoBRL). Cells in 100 mm tissue culture plates were overlayed with the lipid-DNA complex and incubated at 37° C., 5% CO2 for 5-6 hours. Serum-containing growth medium was then added and cells were incubated for an additional 48 hours. […] Positive cultures were subsequently analyzed by the calcium mobilization assay.
HEK 293s cells expressing human α1a-AR were lifted with trypsin and washed once with HBSS. […] Afterward, the agonist was added and fluorescent signal was monitored for 2-3 minutes using FLIPR (Molecular Devices, USA).

[2] = tested on: rat aorta tissue (α1b-AR and α1d-AR); test: Norepinephrine-induced contractile response of rat aorta tissue; settings: rat aortic rings, 37° C., read-out: IC50 for inhibition of contractile response in aortic tissue
Text: (§6) The contractile responses of rat prostatic tissue and rat aorta tissues were examined in the presence and absence of antagonist compounds. As an indication of the selectivity of antagonism, test compound effects on vascular smooth muscle contractility (α1b-AR and α1d-AR) were compared to the effects on prostatic smooth muscle (α1a-AR). Strips of prostatic tissue and aortic rings were obtained from Long Evans derived male rats weighing 275 grams and sacrificed by cervical dislocation. The prostate tissue was placed under 1 gram tension in a 10 ml bath containing phosphate buffered saline pH 7.4 at 32° C. and isometric tension was measured with force transducers. The aortic tissue was placed under 2 grams tension in a 10 ml bath containing phosphate buffered saline pH 7.4 at 37° C. The ability of test compound to reduce the norepinephrine-induced contractile response by 50% (IC50) was determined.

[3] = tested on: rat prostatic tissue (α1a-AR); test: Norepinephrine-induced contractile response of rat prostatic tissue; settings: rat prostatic strips, 32° C., read-out: IC50 for inhibition of contractile response in prostate tissue
Text: as §6

SMILES	IC50 (α1a-AR; Table A) [µM]	IC50 (α1b-AR; Table A) [µM]	IC50 (α1d-AR; Table A) [µM]	IC50 (α1a-AR; Table B) [µM]	IC50 (α1b-AR; Table B) [µM]	IC50 (α1d-AR; Table B) [µM]	IC50 [1] [µM]	IC50 [2] [µM]	IC50 [3] [µM]
C=CCN(CCN1CCN(c2ccccc2OC(C)C)CC1)C(=O)CN1CCCCC1=O [compound 7]	0.103	173	0.372	–	–	–	–	–	–
CC(C)Oc1ccccc1N1CCN(CCNC(=O)CN2C(=O)c3ccccc3C2=O)CC1 [compound 13]	–	–	–	0.104	1.62	0.011	–	–	–
CC(C)Oc1ccccc1N1CCN(CCNC(=O)CN2CCCCCC2=O)CC1 [compound 11]	0.018	3.54	0.505	–	–	–	–	–	–
CC(C)Oc1ccccc1N1CCN(CCN(C)C(=O)CN2CCCCC2=O)CC1 [Cpd. 6]	0.053	764	0.65	–	–	–	–	–	–
CCOC(=O)C1CCC(=O)N1CC(=O)NCCN1CCN(c2ccccc2OC(C)C)CC1 (stereo not drawn) [compound 10]	0.02	26.3	0.26	–	–	–	–	–	–
CC(C)Oc1ccccc1N1CCN(CCN(Cc2ccccc2)C(=O)CN2CCCCC2=O)CC1 [compound 9]	0.088	4.23	0.348	–	–	–	–	–	–
COc1ccccc1N1CCN(CCCNC(=O)CN2CCCCC2=O)CC1 [compound 12]	0.098	109	30.5	–	–	–	–	–	–
CC(C)Oc1ccccc1N1CCN(CCNC(=O)CN2CCCCC2=O)CC1 [Cpd. 5]	0.0087	46.1	0.372	–	–	–	99	31.9	1.3
